How the values were obtained:
Assay in all cases: Experiment 4: growth on culture sheet containing colistin sodium methanesulfonate
Assay type in all cases: cell-based
[1] = test system: Staphylococcus aureus ATCC25923; conditions: tested concentration of 0.3 to 4.1 mg/cm^3 (0.1 to 1.6 mg/ml in the sample solution)
Method: (§1) A given type of microbial strains to be tested were inoculated into a liquid medium (SCD broth medium), and culture was conducted at 35° C. for 24 hours to prepare a test microbial suspension. This test microbial suspension was diluted with phosphate buffered physiological saline to adjust the cell density to about 1 to 500 cfu/ml. The resulting test microbial sample (1 ml) was inoculated into the culture layer of the microorganism culture sheet prepared with the use of the medium liquid containing the components shown in Table 1 using a micropipette. The microorganism culture sheet into which the sample had been inoculated was allowed to stand in an incubator and culture was then conducted at 35° C. for 24 or 48 hours. After the completion of culture, the microorganism culture sheet was removed from the incubator. The color of the colony formed in the culture layer of the microorganism culture sheet and the color intensity were visually inspected. Each test microbial strain was subjected to the experiment described above. The names of the microbial strains to be tested used for the experiment and the conditions and the color of the colonies formed by the strains are shown in Table 2.
(§2) A test microbial sample was prepared in the same manner as in Experiment 1. Also, the microorganism culture sheet was prepared in the same manner as in Experiment 1. […]

[2] = test system: Staphylococcus aureus NBRC100910; conditions: tested concentration of 0.3 to 4.1 mg/cm^3 (0.1 to 1.6 mg/ml in the sample solution)
Method: as §1, §2

[3] = test system: Staphylococcus intermedius ATCC29663; parameters: key: the term “Inhibited” indicates the condition under which the growth was inhibited; a blank column indicates that a colony was formed under normal growth condition; conditions: culture 24 hours
Method: as §1
(§3) A test microbial sample was prepared in the same manner as in Experiment 1. Also, the microorganism culture sheet was prepared in the same manner as in Experiment 1. […] With the use of a micropipette, 1 ml of the test microbial sample was inoculated into a culture layer of the microorganism culture sheet. In the same manner as with Experiment 1, the microorganism culture sheet into which the sample had been inoculated was subjected to incubation, culture was conducted for 24 hours, and the color of the colony formed in the culture layer of the microorganism culture sheet and the color intensity were visually inspected. Each test microbial strain was subjected to the experiment described above. The names of the microbial strains to be tested used for the experiment and the conditions of the colonies formed by the strains are shown in Table 5. […] The colistin sodium methanesulfonate concentration indicated in the upper column is mass concentration (mg/cm^3) relative to the total volume of the dried culture layer before the sample was inoculated thereinto, and the concentration indicated in the lower column is mass concentration (mg/ml) relative to the total volume of the sample solution that was inoculated into the culture layer at the time of use.

[4] = test system: Staphylococcus aureus NBRC12732; parameters: key to Growth condition of the colony: the term “Inhibited” indicates the condition under which the growth was inhibited; a blank column indicates that a colony was formed under normal growth condition; conditions: for Growth condition of the colony: culture 24 hours
Method: as §1, §3

[5] = test system: Staphylococcus carnosus (Derived from roast beef); parameters: key to Growth condition of the colony: the term “Inhibited” indicates the condition under which the growth was inhibited; a blank column indicates that a colony was formed under normal growth condition; conditions: for Growth condition of the colony: culture 24 hours
Method: as §1, §3

[6] = test system: Staphylococcus saprophyticus subsp. saprophyticus NBRC102446; parameters: key to Growth condition of the colony: the term “Inhibited” indicates the condition under which the growth was inhibited; a blank column indicates that a colony was formed under normal growth condition; conditions: for Growth condition of the colony: culture 24 hours
Method: as §1, §3

[7] = test system: Staphylococcus sciuri ATCC29062; parameters: key to Growth condition of the colony: the term “Inhibited” indicates the condition under which the growth was inhibited; a blank column indicates that a colony was formed under normal growth condition; conditions: for Growth condition of the colony: culture 24 hours
Method: as §1, §3

[8] = test system: Staphylococcus xylosus NBRC109770; parameters: key to Growth condition of the colony: the term “Inhibited” indicates the condition under which the growth was inhibited; a blank column indicates that a colony was formed under normal growth condition; conditions: for Growth condition of the colony: culture 24 hours
Method: as §1, §3

[9] = colistin 3.3 mg/cm^3 dried culture layer (1.3 mg/ml sample solution)
[10] = colistin 3.6 mg/cm^3 dried culture layer (1.4 mg/ml sample solution)
[11] = colistin 3.8 mg/cm^3 dried culture layer (1.5 mg/ml sample solution)
[12] = colistin 4.1 mg/cm^3 dried culture layer (1.6 mg/ml sample solution)
[13] = colistin 3.1 mg/cm^3 dried culture layer (1.2 mg/ml sample solution)
[14] = mass concentration in the sample solution
[15] = mass concentration relative to total volume of dried culture layer
[16] = colistin 1.3 mg/cm^3 dried culture layer (0.5 mg/ml sample solution)
[17] = colistin 1.5 mg/cm^3 dried culture layer (0.6 mg/ml sample solution)
[18] = colistin 1.8 mg/cm^3 dried culture layer (0.7 mg/ml sample solution)
[19] = colistin 2.0 mg/cm^3 dried culture layer (0.8 mg/ml sample solution)
[20] = colistin 2.3 mg/cm^3 dried culture layer (0.9 mg/ml sample solution)
[21] = colistin 2.5 mg/cm^3 dried culture layer (1 mg/ml sample solution)
[22] = colistin 2.8 mg/cm^3 dried culture layer (1.1 mg/ml sample solution)

Q: colistin sodium methanesulfonate was tested. Which Growth inhibition [1] did it give?
A: did not inhibit the growth

Q: And the Growth inhibition [2]?
A: did not inhibit the growth

Q: What about the “Growth condition of the colony” value [3, 9] of the same substance?
A: Inhibited

Q: What about the “Growth condition of the colony” value [3, 10] of the same substance?
A: Inhibited

Q: And the “Growth condition of the colony” value [3, 11]?
A: Inhibited

Q: What about the “Growth condition of the colony” value [3, 12] of the same substance?
A: Inhibited

Q: What about the “Growth condition of the colony” value [4, 13] of the same substance?
A: Inhibited

Q: What about the “Growth condition of the colony” value [4, 9] of the same substance?
A: Inhibited

Q: And the “Growth condition of the colony” value [4, 10]?
A: Inhibited

Q: And the “Growth condition of the colony” value [4, 11]?
A: Inhibited

Q: And the “Growth condition of the colony” value [4, 12]?
A: Inhibited

Q: What about the “Concentration at which growth was inhibited” value [4, 14] of the same substance?
A: 1.2 mg/mL

Q: What about the “Concentration at which growth was inhibited” value [4, 15] of the same substance?
A: 3.1 mg/mL

Q: What about the “Growth condition of the colony” value [5, 16] of the same substance?
A: Inhibited

Q: What about the “Growth condition of the colony” value [5, 17] of the same substance?
A: Inhibited

Q: And the “Growth condition of the colony” value [5, 18]?
A: Inhibited

Q: What about the “Growth condition of the colony” value [5, 19] of the same substance?
A: Inhibited

Q: And the “Growth condition of the colony” value [5, 20]?
A: Inhibited

Q: What about the “Growth condition of the colony” value [5, 21] of the same substance?
A: Inhibited

Q: What about the “Growth condition of the colony” value [5, 22] of the same substance?
A: Inhibited

Q: And the “Growth condition of the colony” value [5, 13]?
A: Inhibited

Q: What about the “Growth condition of the colony” value [5, 9] of the same substance?
A: Inhibited

Q: And the “Growth condition of the colony” value [5, 10]?
A: Inhibited

Q: What about the “Growth condition of the colony” value [5, 11] of the same substance?
A: Inhibited

Q: What about the “Growth condition of the colony” value [5, 12] of the same substance?
A: Inhibited

Q: What about the “Concentration at which growth was inhibited” value [5, 14] of the same substance?
A: ≥ 0.5 mg/mL

Q: And the “Concentration at which growth was inhibited” value [5, 15]?
A: ≥ 1.3 mg/mL

Q: And the “Growth condition of the colony” value ([6]; colistin 0.5 mg/cm^3 dried culture layer (0.2 mg/ml sample solution))?
A: Inhibited

Q: What about the “Growth condition of the colony” value ([6]; colistin 0.8 mg/cm^3 dried culture layer (0.3 mg/ml sample solution)) of the same substance?
A: Inhibited

Q: What about the “Growth condition of the colony” value ([6]; colistin 1.0 mg/cm^3 dried culture layer (0.4 mg/ml sample solution)) of the same substance?
A: Inhibited

Q: And the “Growth condition of the colony” value [6, 16]?
A: Inhibited

Q: What about the “Growth condition of the colony” value [6, 17] of the same substance?
A: Inhibited

Q: And the “Growth condition of the colony” value [6, 18]?
A: Inhibited

Q: And the “Growth condition of the colony” value [6, 19]?
A: Inhibited

Q: And the “Growth condition of the colony” value [6, 20]?
A: Inhibited

Q: What about the “Growth condition of the colony” value [6, 21] of the same substance?
A: Inhibited

Q: What about the “Growth condition of the colony” value [6, 22] of the same substance?
A: Inhibited

Q: And the “Growth condition of the colony” value [6, 13]?
A: Inhibited

Q: And the “Growth condition of the colony” value [6, 9]?
A: Inhibited

Q: What about the “Growth condition of the colony” value [6, 10] of the same substance?
A: Inhibited

Q: And the “Growth condition of the colony” value [6, 11]?
A: Inhibited

Q: And the “Growth condition of the colony” value [6, 12]?
A: Inhibited

Q: What about the “Concentration at which growth was inhibited” value [6, 14] of the same substance?
A: ≥ 0.2 mg/mL

Q: And the “Concentration at which growth was inhibited” value [6, 15]?
A: ≥ 0.5 mg/mL

Q: And the “Growth condition of the colony” value [7, 20]?
A: Inhibited

Q: And the “Growth condition of the colony” value [7, 21]?
A: Inhibited

Q: And the “Growth condition of the colony” value [7, 22]?
A: Inhibited

Q: What about the “Growth condition of the colony” value [7, 13] of the same substance?
A: Inhibited

Q: And the “Growth condition of the colony” value [7, 9]?
A: Inhibited

Q: And the “Growth condition of the colony” value [7, 10]?
A: Inhibited

Q: And the “Growth condition of the colony” value [7, 11]?
A: Inhibited

Q: What about the “Growth condition of the colony” value [7, 12] of the same substance?
A: Inhibited

Q: And the “Concentration at which growth was inhibited” value [7, 14]?
A: ≥ 0.9 mg/mL

Q: What about the “Concentration at which growth was inhibited” value [7, 15] of the same substance?
A: ≥ 2.3 mg/mL

Q: And the “Growth condition of the colony” value [8, 20]?
A: Inhibited

Q: And the “Growth condition of the colony” value [8, 21]?
A: Inhibited

Q: What about the “Growth condition of the colony” value [8, 22] of the same substance?
A: Inhibited

Q: And the “Growth condition of the colony” value [8, 13]?
A: Inhibited

Q: And the “Growth condition of the colony” value [8, 9]?
A: Inhibited

Q: What about the “Growth condition of the colony” value [8, 10] of the same substance?
A: Inhibited

Q: What about the “Growth condition of the colony” value [8, 11] of the same substance?
A: Inhibited

Q: And the “Growth condition of the colony” value [8, 12]?
A: Inhibited

Q: And the “Concentration at which growth was inhibited” value [8, 14]?
A: ≥ 0.9 mg/mL

Q: What about the “Concentration at which growth was inhibited” value [8, 15] of the same substance?
A: ≥ 2.3 mg/mL
